Measurements reported in patent publication US7459471B2, “Inclusion compound comprising cucurbituril derivatives as host molecule and pharmaceutical composition comprising the same” (Postech Foundation, priority 2001, dated 2008).

Tests used:
[1] = tested on: SKMEL-2 human melanoma tumor cells; test: SRB (sulforhodamine B) assay, antiproliferative activity, SKMEL-2; type: cell-based
Procedure: (§1) Anticancer activities of the inclusion compounds synthesized in Synthesis Examples 1 and 2 were measured as follows.
(§2) First, the oxaliplatin-cucurbitu[7]ril inclusion compounds synthesized in Synthesis Examples 1 and 2, were freeze-dried to prepare samples. Tumor cells used were A 549 (human non-small cell lung), SKOV-3 (human ovarian), SKMEL-2 (human melanoma), XF498 (human CNS), and HCT-15 (human colon), and analyzed by SRB (sulforhodamine B) assay.

[2] = tested on: A549 human non-small cell lung tumor cells; test: SRB (sulforhodamine B) assay, antiproliferative activity, A549; type: cell-based
Procedure: as §1, §2

[3] = tested on: SKOV-3 human ovarian tumor cells; test: SRB (sulforhodamine B) assay, antiproliferative activity, SKOV-3; type: cell-based
Procedure: as §1, §2

[4] = tested on: HCT-15 human colon tumor cells; test: SRB (sulforhodamine B) assay, antiproliferative activity, HCT-15; type: cell-based
Procedure: as §1, §2

[5] = Isothermal microcalorimeter titration of oxaliplatin and cucurbitu[7]ril; type: physicochemical; conditions: 25° C., 20 mM oxaliplatin, 1 mM cucurbitu[7]ril
[6] = tested on: XF-498 human CNS tumor cells; test: SRB (sulforhodamine B) assay, antiproliferative activity, XF-498; type: cell-based
Procedure: as §1, §2

Row | SMILES | Antiproliferative activity (ED50/μM) [1] [µM] | Antiproliferative activity (ED50/μM) [2] [µM] | Antiproliferative activity (ED50/μM) [3] [µM] | Antiproliferative activity (ED50/μM) [4] [µM] | binding constant [5] | binding enthalpy [5] [kcal/mol] | Antiproliferative activity (ED50/μM) [6] [µM]
1 | N[C@@H]1CCCC[C@H]1N.O=C([O-])C(=O)[O-].[Pt+2] (relative stereo) [Oxaliplatin, (trans-L-diaminocyclohexane)oxalatoplatinum (II)] | 0.97 | 0.42 | 0.67 | 0.90 | 2.39×10^5(±0.4) M^−1 | -6.33 | 0.49
2 | N.N.[Cl][Pt][Cl] [Cisplatin] | 3.08 | 1.17 | 2.87 | 1.32 | – | – | 0.46
